Data on eight molecules can be found in ChEMBL document CHEMBL1130853, “Synthesis and biological properties of new 1 beta-methylcarbapenems” (Bioorg Med Chem Lett, 1998).

One series concerns Enterococcus faecium. The series can be described thus: Antibacterial activity against Streptococcus faecium MD 8b. It is filed as functional.
A further series has as its system Staphylococcus aureus. Kind of series: Antibacterial activity against Staphylococcus aureus SG 511. It is filed as functional.
Series [1] is described as follows: Antibacterial activity against Enterobacter cloacae 1321E. It is filed as functional.
The subject of series [2] is Pseudomonas aeruginosa. The series can be described thus: microbe, parasite or virus in culture. It is filed as functional.
Description: Compound was evaluated for antibacterial activity against Pseudomonas aeruginosa 1592E
The test system of the next series is Klebsiella aerogenes. The series can be described thus: Antibacterial activity against Klebsiella aerogenes 1522E. Format: functional.
Series [3] relates to Pseudomonas aeruginosa. Kind of series: microbe, parasite or virus in culture. It is filed as functional. The source holds these as a separate data set.
Description: Antibacterial activity against Pseudomonas aeruginosa 1771M
The next series relates to Salmonella typhimurium. Kind of series: Antibacterial activity against Salmonella Typhimurium. Format: functional, Salmonella enterica subsp. enterica serovar Typhimurium. Conditions: Salmonella enterica.
The test system of series [4] is Streptococcus pyogenes. The series can be described thus: Antibacterial activity against Streptococcus pyogenes 77A. Format: functional.
In series [5] the test system is Escherichia coli. The series can be described thus: microbe, parasite or virus in culture. It is filed as functional.
Description: Antibacterial activity against Escherichia coli 1507E
Series [6] deals with T1, Dipeptidase 1 (Sus scrofa) (UniProt P22412).
T1 sequence (whole entry): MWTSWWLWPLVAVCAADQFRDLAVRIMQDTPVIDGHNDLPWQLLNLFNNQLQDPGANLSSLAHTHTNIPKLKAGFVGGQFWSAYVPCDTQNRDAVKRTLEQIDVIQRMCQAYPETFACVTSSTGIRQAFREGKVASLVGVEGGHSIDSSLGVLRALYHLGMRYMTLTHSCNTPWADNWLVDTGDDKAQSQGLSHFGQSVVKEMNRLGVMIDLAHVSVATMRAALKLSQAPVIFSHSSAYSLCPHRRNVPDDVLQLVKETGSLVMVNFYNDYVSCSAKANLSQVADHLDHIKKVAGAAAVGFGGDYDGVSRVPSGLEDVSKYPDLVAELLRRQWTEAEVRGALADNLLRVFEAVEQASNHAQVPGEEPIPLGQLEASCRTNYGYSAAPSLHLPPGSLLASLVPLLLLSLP
The series can be described thus: Compound was evaluated for relative rate of hydrolysis to imipenem by partially purified porcine renal Dehydropeptidase-1. Further details: scale not given: the % may be the effect or the level left.

For series [7], the system named is Streptococcus pyogenes. The series can be described thus: Compound was tested for in vivo protective activity against Streptococcus pyogenes 77A at a single subcutaneous administration in mice. As to conditions: sc, read-out: PD50. Format: functional.
Series [8] concerns Escherichia coli. Kind of series: Compound was tested for in vivo protective activity against Escherichia coli 078 at a single subcutaneous administration in mice. Format: functional. As to conditions: sc, read-out: PD50.
Series [9] is described as follows: Time taken by the compound to reach maximum concentration. Format: ADME.
In series [10] the test system is Pseudomonas aeruginosa. The series can be described thus: Compound was tested for in vivo protective activity against Pseudomonas aeruginosa 1771M at a single subcutaneous administration in mice. It is filed as functional. Conditions: sc, read-out: PD50.

Structures are written as SMILES. Converted amounts (≈) assume the structure as drawn.

Consider `C[C@@H](O)[C@H]1C(=O)N2C(C(=O)O)=C(S[C@@H]3CN[C@H](C(=O)NCCC(=O)O)C3)[C@H](C)[C@H]12`, for which the MIC against Enterococcus faecium was 50 µg/mL (≈ 117 µM); with Staphylococcus aureus it was 1.56 µg/mL (≈ 3.66 µM); in series [1], 0.049 µg/mL (≈ 0.115 µM); against Pseudomonas aeruginosa [2], 6.25 µg/mL (≈ 14.6 µM); against Klebsiella aerogenes, 0.098 µg/mL (≈ 0.229 µM); against Pseudomonas aeruginosa [3] it was 3.12 µg/mL (≈ 7.31 µM). The MIC in the series with Salmonella typhimurium is 0.098 µg/mL (≈ 0.229 µM); in the series on Streptococcus pyogenes [4], 0.049 µg/mL (≈ 0.115 µM); against Escherichia coli [5] it was 0.049 µg/mL (≈ 0.115 µM).

As to `C[C@@H](O)[C@H]1C(=O)N2C(C(=O)O)=C(S[C@@H]3CN[C@H](C(=O)NCCC(N)=O)C3)[C@H](C)[C@H]12`, the MIC with Enterococcus faecium amounted to 12.5 µg/mL (≈ 29.3 µM); in the series with Staphylococcus aureus it was 0.195 µg/mL (≈ 0.457 µM); in series [1], 0.025 µg/mL (≈ 0.0586 µM); with Pseudomonas aeruginosa [2], 0.391 µg/mL (≈ 0.917 µM); against Klebsiella aerogenes it was 0.049 µg/mL (≈ 0.115 µM); in the series with Pseudomonas aeruginosa [3], 0.195 µg/mL (≈ 0.457 µM). The figures for the MIC with Salmonella typhimurium, against Streptococcus pyogenes [4] and in the series on Escherichia coli [5] were 0.049 µg/mL (≈ 0.115 µM), 0.007 µg/mL (≈ 0.0164 µM) and 0.025 µg/mL (≈ 0.0586 µM), respectively. For the same molecule, in series [6], the Stability stood at 2600%.

As for `CNS(=O)(=O)CCNC(=O)[C@@H]1C[C@H](SC2=C(C(=O)O)N3C(=O)[C@H]([C@@H](C)O)[C@H]3[C@H]2C)CN1`, the MIC against Enterococcus faecium was 12.5 µg/mL (≈ 26.2 µM); in the series with Staphylococcus aureus, 0.195 µg/mL (≈ 0.409 µM); in series [1] it was 0.025 µg/mL (≈ 0.0525 µM); with Pseudomonas aeruginosa [2], 0.391 µg/mL (≈ 0.82 µM); with Klebsiella aerogenes, 0.049 µg/mL (≈ 0.103 µM); in the series on Pseudomonas aeruginosa [3] it was 0.369 µg/mL (≈ 0.774 µM). For the same molecule, the MIC in the series on Salmonella typhimurium stood at 0.025 µg/mL (≈ 0.0525 µM); in the series on Streptococcus pyogenes [4] it was 0.013 µg/mL (≈ 0.0273 µM); against Escherichia coli [5], 0.025 µg/mL (≈ 0.0525 µM).

In the case of `C[C@@H](O)[C@H]1C(=O)N2C(C(=O)O)=C(S[C@@H]3CN[C@H](C(=O)NCCS(=O)(=O)N4CCCC4)C3)[C@H](C)[C@H]12`, the MIC against Enterococcus faecium turned out to be 6.25 µg/mL (≈ 12.1 µM); against Staphylococcus aureus, 0.098 µg/mL (≈ 0.19 µM); in [1] it was 0.013 µg/mL (≈ 0.0252 µM); in the series with Pseudomonas aeruginosa [2], 6.25 µg/mL (≈ 12.1 µM); against Klebsiella aerogenes, 0.025 µg/mL (≈ 0.0484 µM); with Pseudomonas aeruginosa [3] it was 0.391 µg/mL (≈ 0.757 µM). For the same molecule, the values for the MIC against Salmonella typhimurium, in the series on Streptococcus pyogenes [4] and against Escherichia coli [5] were 0.025 µg/mL (≈ 0.0484 µM), 0.004 µg/mL (≈ 0.00774 µM) and 0.013 µg/mL (≈ 0.0252 µM), respectively.

For orientation: Tmax means the time at which the peak concentration occurs. On to `C[C@@H](O)[C@H]1C(=O)N2C(C(=O)O)=C(S[C@@H]3CN[C@H](C(=O)N(C)C)C3)[C@H](C)[C@H]12` [MEROPENEM], for which the MIC stood at 12.5 µg/mL (≈ 32.6 µM) against Enterococcus faecium; 0.098 µg/mL (≈ 0.256 µM) in the series with Staphylococcus aureus; 0.025 µg/mL (≈ 0.0652 µM) in series [1]; 0.195 µg/mL (≈ 0.509 µM) against Pseudomonas aeruginosa [2]; 0.049 µg/mL (≈ 0.128 µM) in the series on Klebsiella aerogenes; 0.049 µg/mL (≈ 0.128 µM) against Pseudomonas aeruginosa [3]. For the same molecule, the MIC with Salmonella typhimurium worked out at 0.025 µg/mL (≈ 0.0652 µM); in the series with Streptococcus pyogenes [4], 0.002 µg/mL (≈ 0.00522 µM); with Escherichia coli [5], 0.025 µg/mL (≈ 0.0652 µM). Moreover, in series [6], the Stability turned out to be 3200%. The ED50 was determined as 7.16 mg/kg with Streptococcus pyogenes [7], 1.24 mg/kg in the series with Escherichia coli [8] and 1.76 mg/kg in the series on Pseudomonas aeruginosa [10]. The Tmax in series [9] came out at 12.6 min.

On to `C[C@@H](O)[C@H]1C(=O)N2C(C(=O)O)=C(S[C@@H]3CN[C@H](C(=O)NCCC(=O)N4CCCC4)C3)[C@H](C)[C@H]12`, for which the MIC against Enterococcus faecium was determined as 12.5 µg/mL (≈ 26 µM); against Staphylococcus aureus, 0.195 µg/mL (≈ 0.406 µM); in series [1] it was 0.025 µg/mL (≈ 0.052 µM); against Pseudomonas aeruginosa [2] it was 6.25 µg/mL (≈ 13 µM); against Klebsiella aerogenes, 0.049 µg/mL (≈ 0.102 µM); against Pseudomonas aeruginosa [3], 0.781 µg/mL (≈ 1.63 µM). Besides, the MIC in the series on Salmonella typhimurium was determined as 0.049 µg/mL (≈ 0.102 µM); with Streptococcus pyogenes [4], 0.007 µg/mL (≈ 0.0146 µM); in the series on Escherichia coli [5] it was 0.025 µg/mL (≈ 0.052 µM).

With `C=CCNS(=O)(=O)CCNC(=O)[C@@H]1C[C@H](SC2=C(C(=O)O)N3C(=O)[C@H]([C@@H](C)O)[C@H]3[C@H]2C)CN1`, the MIC turned out to be 6.25 µg/mL (≈ 12.4 µM) in the series on Enterococcus faecium; 0.195 µg/mL (≈ 0.388 µM) in the series on Staphylococcus aureus; 0.025 µg/mL (≈ 0.0497 µM) in series [1]; 1.56 µg/mL (≈ 3.11 µM) in the series with Pseudomonas aeruginosa [2]; 0.049 µg/mL (≈ 0.0975 µM) in the series with Klebsiella aerogenes; 0.781 µg/mL (≈ 1.55 µM) with Pseudomonas aeruginosa [3]. Further, the MIC against Salmonella typhimurium is 0.049 µg/mL (≈ 0.0975 µM); in the series on Streptococcus pyogenes [4], 0.007 µg/mL (≈ 0.0139 µM); against Escherichia coli [5] it was 0.025 µg/mL (≈ 0.0497 µM).

Turning to `C[C@@H](O)[C@H]1C(=O)N2C(C(=O)O)=C(S[C@@H]3CN[C@H](C(=O)NCCS(=O)(=O)N(C)C)C3)[C@H](C)[C@H]12`, the MIC against Enterococcus faecium worked out at 12.5 µg/mL (≈ 25.5 µM); against Staphylococcus aureus, 0.195 µg/mL (≈ 0.397 µM); in series [1], 0.025 µg/mL (≈ 0.051 µM); in the series on Pseudomonas aeruginosa [2], 1.56 µg/mL (≈ 3.19 µM); with Klebsiella aerogenes, 0.049 µg/mL (≈ 0.0999 µM); in the series with Pseudomonas aeruginosa [3], 0.195 µg/mL (≈ 0.397 µM). Also, the MIC in the series with Salmonella typhimurium came out at 0.049 µg/mL (≈ 0.0999 µM); against Streptococcus pyogenes [4], 0.007 µg/mL (≈ 0.0143 µM); in the series on Escherichia coli [5], 0.025 µg/mL (≈ 0.051 µM).
